Results as given in US20230271949A1, “GLP-1R MODULATING COMPOUNDS” (ASCLETIS BIOSCIENCE CO., LTD., priority 2022, published 2023).

biological target: GLP-1R (Homo sapiens, UniProt P43220); test: GLP-1R agonist cAMP stimulation assay (HTRF cAMP); assay type: cell-based; details: HEK293 cell line expressing GLP-1 target; HTRF cAMP agonist mode, 30 min at RT
Procedure, shortened: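 GLP-1R-expressing cells were stimulated with 10-point, 3-fold compound dilutions for 30 min at RT; HTRF cAMP detection reagents were then added for 60 min and the 665/615 ratio read. Ratios were converted to cAMP via a standard curve and % activity scaled between DMSO and top-concentration GLP-1(7-37) reference wells.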

Sequence of GLP-1R (P43220 24-463): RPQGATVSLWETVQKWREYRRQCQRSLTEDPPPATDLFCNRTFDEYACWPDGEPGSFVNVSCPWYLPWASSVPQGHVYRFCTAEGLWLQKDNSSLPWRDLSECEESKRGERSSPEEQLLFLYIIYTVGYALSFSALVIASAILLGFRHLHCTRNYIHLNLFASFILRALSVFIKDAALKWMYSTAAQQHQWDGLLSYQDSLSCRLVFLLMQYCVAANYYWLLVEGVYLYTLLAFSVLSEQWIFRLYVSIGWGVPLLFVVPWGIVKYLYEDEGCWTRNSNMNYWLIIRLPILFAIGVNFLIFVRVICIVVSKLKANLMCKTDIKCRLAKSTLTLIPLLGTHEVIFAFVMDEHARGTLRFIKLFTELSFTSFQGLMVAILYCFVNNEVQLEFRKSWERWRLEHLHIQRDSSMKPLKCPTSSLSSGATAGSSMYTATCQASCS

| Structure (SMILES) | EC50 [nM] |
| --- | --- |
| Cc1cc2c(C#N)ccc(COc3cccc(C4=CCN(Cc5nc6cc(NC(=O)c7cc(F)c8[nH]nc(C)c8c7)ccc6n5C[C@@H]5CCO5)CC4)n3)c2o1 [Compound 360] | 0.19 |
| Cc1n[nH]c2c(F)cc(C(=O)Nc3ccc4c(c3)nc(CN3CC=C(c5cccc(OCc6cc(F)c(C#N)s6)n5)CC3)n4C[C@@H]3CCO3)cc12 [Compound 362] | 0.85 |
| Cc1n[nH]c2c(F)cc(NC(=O)c3ccc4c(c3)nc(CN3CC=C(c5cccc(OCc6cc(F)c(C#N)s6)n5)CC3)n4C[C@@H]3CCO3)cc12 [Compound 363] | 0.41 |
| Cc1n[nH]c2c(C)cc(NC(=O)c3ccc4c(c3)nc(CN3CC=C(c5cccc(OCc6cc(F)c(C#N)s6)n5)CC3)n4C[C@@H]3CCO3)cc12 [Compound 364] | 0.38 |
| Cc1n[nH]c2ccc(NC(=O)c3ccc4c(c3)nc(CN3CC=C(c5cccc(OCc6ccc(C#N)c7ccccc67)n5)CC3)n4C[C@@H]3CCO3)cc12 [Compound 366] | 5.97 |
| Cc1cc2c(C#N)ccc(COc3cccc(C4CCN(Cc5nc6cc(NC(=O)c7ccc8[nH]nc(C)c8c7)ccc6n5C[C@@H]5CCO5)CC4)n3)c2o1 [Compound 370] | 5.12 |
| Cc1cc2c(C#N)ccc(COc3cccc(C4CCN(Cc5nc6cc(NC(=O)c7ccc8[nH]nc(C(F)(F)F)c8c7)ccc6n5C[C@@H]5CCO5)CC4)n3)c2o1 [Compound 371] | 3.19 |
| Cc1cc2c(C#N)ccc(COc3cccc(C4CCN(Cc5nc6cc(NC(=O)c7cc(F)c8[nH]nc(C)c8c7)ccc6n5C[C@@H]5CCO5)CC4)n3)c2o1 [Compound 372] | 0.65 |
| Cc1c(C#N)sc(COc2cccc(C3CCN(Cc4nc5cc(NC(=O)c6ccc7[nH]nc(C)c7c6)ccc5n4C[C@@H]4CCO4)CC3)n2)c1F [Compound 373] | 0.39 |
| Cc1n[nH]c2ccc(NC(=O)c3ccc4c(c3)nc(CN3CCC(c5cccc(OCc6c(F)cnc7ccccc67)n5)CC3)n4C[C@@H]3CCO3)cc12 [Compound 380] | 6.91 |
| Cc1nc2cccc(COc3cccc(C4CCN(Cc5nc6cc(C(=O)Nc7ccc8[nH]nc(C)c8c7)ccc6n5C[C@@H]5CCO5)CC4)n3)c2s1 [Compound 381] | 1.99 |
| O=C(Nc1ccc2c(c1)nc(CN1CC=C(c3cccc(OCc4ccc(Cl)cc4F)n3)CC1)n2C[C@@H]1CCO1)c1ccc2[nH]ccc2c1 [Compound 393] | 15.2 |
| Cc1cc2cc(C(=O)Nc3ccc4c(c3)nc(CN3CC=C(c5cccc(OCc6ccc(Cl)cc6F)n5)CC3)n4C[C@@H]3CCO3)ccc2[nH]1 [Compound 394] | 21.1 |
| CC(=O)c1n[nH]c2ccc(C(=O)Nc3ccc4c(c3)nc(CN3CC=C(c5cccc(OCc6ccc(Cl)cc6F)n5)CC3)n4C[C@@H]3CCO3)cc12 [Compound 395] | 10.3 |
| Fc1cc(Cl)ccc1COc1cccc(C2=CCN(Cc3nc4cc(-c5nc(-c6cc(C(F)(F)F)[nH]n6)co5)ccc4n3C[C@@H]3CCO3)CC2)n1 [Compound 398] | 110 |
| O=C(Nc1cc2[nH]ccc2s1)c1ccc2c(c1)nc(CN1CC=C(c3cccc(OCc4ccc(Cl)cc4F)n3)CC1)n2C[C@@H]1CCO1 [Compound 402] | 73.2 |
| O=C(Nc1nc2[nH]cnc2s1)c1ccc2c(c1)nc(CN1CC=C(c3cccc(OCc4ccc(Cl)cc4F)n3)CC1)n2C[C@@H]1CCO1 [Compound 403] | 23.2 |
| CCn1cncc1Cn1c(CN2CC=C(c3cccc4c3OC(C)(c3ccc(Cl)cn3)O4)CC2)nc2cc(NC(=O)c3cc(F)c4[nH]nc(C)c4c3)ccc21 (stereo not drawn) [Compound 410] | 0.31 |
| CCn1cncc1Cn1c(Cc2c(F)cc(-c3cccc4c3O[C@](C)(c3ccc(Cl)cn3)O4)cc2F)nc2cc(NC(=O)c3cc(F)c4[nH]nc(C)c4c3)ccc21 [Compound 412] | 3.1 |

Results, then the compound that gave them:

| EC50 [nM] | Structure (SMILES) |
| --- | --- |
| 0.41 | Cc1n[nH]c2c(C)cc(C(=O)Nc3ccc4c(c3)nc(CN3CC=C(c5cccc(OCc6ccc(C#N)c7cc(Cl)oc67)n5)CC3)n4C[C@@H]3CCO3)cc12 [Compound 357] |
| 0.98 | Cc1cc2c(C#N)ccc(COc3cccc(C4=CCN(Cc5nc6cc(NC(=O)c7ccc8[nH]nc(C)c8c7)ccc6n5C[C@@H]5CCO5)CC4)n3)c2o1 [Compound 358] |
| 1.62 | Cc1cc2c(C#N)ccc(COc3cccc(C4=CCN(Cc5nc6cc(NC(=O)c7ccc8[nH]nc(C(F)(F)F)c8c7)ccc6n5C[C@@H]5CCO5)CC4)n3)c2o1 [Compound 359] |
| 0.9 | Cc1c(C#N)sc(COc2cccc(C3=CCN(Cc4nc5cc(NC(=O)c6ccc7[nH]nc(C)c7c6)ccc5n4C[C@@H]4CCO4)CC3)n2)c1F [Compound 361] |
| 1.32 | Cc1cc(NC(=O)c2ccc3c(c2)nc(CN2CC=C(c4cccc(OCc5cc(F)c(C#N)s5)n4)CC2)n3C[C@@H]2CCO2)cc2c(C(F)(F)F)n[nH]c12 [Compound 365] |
| 3.92 | Cc1n[nH]c2c(F)cc(NC(=O)c3ccc4c(c3)nc(CN3CC=C(c5cccc(OCc6ccc(C#N)c7c6ncn7C)n5)CC3)n4C[C@@H]3CCO3)cc12 [Compound 367] |
| 9.19 | Cc1n[nH]c2ccc(NC(=O)c3ccc4c(c3)nc(CN3CC=C(c5cccc(OCc6c(F)cnc7ccccc67)n5)CC3)n4C[C@@H]3CCO3)cc12 [Compound 368] |
| 2.91 | Cc1nc2cccc(COc3cccc(C4=CCN(Cc5nc6cc(C(=O)Nc7ccc8[nH]nc(C)c8c7)ccc6n5C[C@@H]5CCO5)CC4)n3)c2s1 [Compound 369] |
| 0.55 | Cc1n[nH]c2c(F)cc(C(=O)Nc3ccc4c(c3)nc(CN3CCC(c5cccc(OCc6cc(F)c(C#N)s6)n5)CC3)n4C[C@@H]3CCO3)cc12 [Compound 374] |
| 1.01 | Cc1n[nH]c2c(F)cc(NC(=O)c3ccc4c(c3)nc(CN3CCC(c5cccc(OCc6cc(F)c(C#N)s6)n5)CC3)n4C[C@@H]3CCO3)cc12 [Compound 375] |
| 0.98 | Cc1n[nH]c2c(C)cc(NC(=O)c3ccc4c(c3)nc(CN3CCC(c5cccc(OCc6cc(F)c(C#N)s6)n5)CC3)n4C[C@@H]3CCO3)cc12 [Compound 376] |
| 3.41 | Cc1cc(NC(=O)c2ccc3c(c2)nc(CN2CCC(c4cccc(OCc5cc(F)c(C#N)s5)n4)CC2)n3C[C@@H]2CCO2)cc2c(C(F)(F)F)n[nH]c12 [Compound 377] |
| 1.03 | Cc1n[nH]c2ccc(NC(=O)c3ccc4c(c3)nc(CN3CCC(c5cccc(OCc6ccc(C#N)c7ccccc67)n5)CC3)n4C[C@@H]3CCO3)cc12 [Compound 378] |
| 3.12 | Cc1n[nH]c2c(F)cc(NC(=O)c3ccc4c(c3)nc(CN3CCC(c5cccc(OCc6ccc(C#N)c7c6ncn7C)n5)CC3)n4C[C@@H]3CCO3)cc12 [Compound 379] |
| 0.82 | Cc1n[nH]c2c(C(F)(F)F)cc(NC(=O)c3ccc4c(c3)nc(CN3CC=C(c5cccc6c5O[C@@](C)(c5ccc(Cl)cc5F)O6)CC3)n4CC3CCO3)cc12 (stereo partly drawn) [Compound 388] |
| 2.81 | Cc1n[nH]c2c(C(F)(F)F)cc(NC(=O)c3ccc4c(c3)nc(CN3CC=C(c5cccc6c5O[C@](C)(c5ccc(Cl)cc5F)O6)CC3)n4CC3CCO3)cc12 (stereo partly drawn) [Compound 389] |
| 5.21 | Cc1c[nH]c2c(C)cc(C(=O)Nc3ccc4c(c3)nc(CN3CC=C(c5cccc(OCc6ccc(Cl)cc6F)n5)CC3)n4C[C@@H]3CCO3)cc12 [Compound 390] |
| 10.1 | Cc1[nH]c2ccc(C(=O)Nc3ccc4c(c3)nc(CN3CC=C(c5cccc(OCc6ccc(Cl)cn6)n5)CC3)n4C[C@@H]3CCO3)cc2c1C [Compound 392] |
| 146 | Fc1cc(Cl)ccc1COc1cccc(C2=CCN(Cc3nc4cc(-n5cnc(-c6ccn[nH]6)c5)ccc4n3C[C@@H]3CCO3)CC2)n1 [Compound 396] |
| 127 | Cc1cc(-c2cn(-c3ccc4c(c3)nc(CN3CC=C(c5cccc(OCc6ccc(Cl)cc6F)n5)CC3)n4C[C@@H]3CCO3)cn2)[nH]n1 [Compound 397] |
| > 10000 | Fc1cc(Cl)ccc1COc1cccc(C2=CCN(Cc3nc4cc(-c5nc(-c6c[nH]c(C(F)(F)F)n6)co5)ccc4n3C[C@@H]3CCO3)CC2)n1 [Compound 399] |
| 104 | O=C(NC1=Nc2nccn2C1)c1ccc2c(c1)nc(CN1CC=C(c3cccc(OCc4ccc(Cl)cc4F)n3)CC1)n2C[C@@H]1CCO1 [Compound 400] |
| 21.8 | O=C(Nc1cnn2[nH]ccc12)c1ccc2c(c1)nc(CN1CC=C(c3cccc(OCc4ccc(Cl)cc4F)n3)CC1)n2C[C@@H]1CCO1 [Compound 401] |
| 19.8 | O=C(Nc1nc2[nH]cnc2o1)c1ccc2c(c1)nc(CN1CC=C(c3cccc(OCc4ccc(Cl)cc4F)n3)CC1)n2C[C@@H]1CCO1 [Compound 404] |
| 39.9 | Cc1n[nH]c2c(C)cc(NC(=O)c3cc4c(nc(CN5CC=C(c6cccc(OCc7ccc(Cl)cc7F)n6)CC5)n4C[C@@H]4CCO4)s3)cc12 [Compound 405] |
| 99.2 | Cc1n[nH]c2c(F)cc(NC(=O)c3cc4c(nc(CN5CC=C(c6cccc(OCc7ccc(Cl)cn7)n6)CC5)n4C[C@@H]4CCO4)s3)cc12 [Compound 406] |
